Experimental findings from patent US8822517B2, “Arylosulfonamides for the treatment of CNS diseases” (Adamed SP. Z O.O., priority 2010, dated 2014) are described below.

The target of experiment [1] is T1, serotoninergic 5-HT1A receptor (Homo sapiens, UniProt P08908).
T1 sequence (P08908 1-422): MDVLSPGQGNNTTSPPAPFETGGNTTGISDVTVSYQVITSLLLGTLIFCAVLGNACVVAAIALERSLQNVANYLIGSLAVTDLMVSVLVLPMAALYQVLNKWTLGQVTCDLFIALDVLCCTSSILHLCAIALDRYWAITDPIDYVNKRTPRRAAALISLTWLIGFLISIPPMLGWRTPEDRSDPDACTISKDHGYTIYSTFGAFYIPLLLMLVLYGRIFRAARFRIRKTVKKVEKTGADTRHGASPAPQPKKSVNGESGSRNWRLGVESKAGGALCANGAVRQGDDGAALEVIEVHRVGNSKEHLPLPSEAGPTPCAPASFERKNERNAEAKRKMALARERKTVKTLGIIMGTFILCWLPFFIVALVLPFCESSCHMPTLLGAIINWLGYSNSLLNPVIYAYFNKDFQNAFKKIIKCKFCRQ
As to the kind of experiment: Binding assay 5-HT1A (h), [3H]8-OH-DPAT, HEK-293 cells. More on the design: expressed in transfected cells; host or cells: HEK-293 cells. The settings on record: read-out: 5-HT1A. The essentials:
(§1)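 Scintillation counting detects receptor-bound radioligand. Compound tested at 1×10^−6 M.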

The next experiment addresses dopaminergic D3 receptor (Homo sapiens, UniProt P35462). Kind of experiment: Binding assay D3 (h), [3H]methyl-spiperone, CHO cells. Also on record: expressed in transfected cells; host or cells: CHO cells. Conditions: read-out: D3 [%]. The essentials:
as §1

The target of experiment [2] is T2, serotonine transporter (SERT) receptor (Homo sapiens, UniProt P31645).
T2 construct: expressed in transfected cells; host or cells: CHO cells
T2 sequence (P31645 whole entry): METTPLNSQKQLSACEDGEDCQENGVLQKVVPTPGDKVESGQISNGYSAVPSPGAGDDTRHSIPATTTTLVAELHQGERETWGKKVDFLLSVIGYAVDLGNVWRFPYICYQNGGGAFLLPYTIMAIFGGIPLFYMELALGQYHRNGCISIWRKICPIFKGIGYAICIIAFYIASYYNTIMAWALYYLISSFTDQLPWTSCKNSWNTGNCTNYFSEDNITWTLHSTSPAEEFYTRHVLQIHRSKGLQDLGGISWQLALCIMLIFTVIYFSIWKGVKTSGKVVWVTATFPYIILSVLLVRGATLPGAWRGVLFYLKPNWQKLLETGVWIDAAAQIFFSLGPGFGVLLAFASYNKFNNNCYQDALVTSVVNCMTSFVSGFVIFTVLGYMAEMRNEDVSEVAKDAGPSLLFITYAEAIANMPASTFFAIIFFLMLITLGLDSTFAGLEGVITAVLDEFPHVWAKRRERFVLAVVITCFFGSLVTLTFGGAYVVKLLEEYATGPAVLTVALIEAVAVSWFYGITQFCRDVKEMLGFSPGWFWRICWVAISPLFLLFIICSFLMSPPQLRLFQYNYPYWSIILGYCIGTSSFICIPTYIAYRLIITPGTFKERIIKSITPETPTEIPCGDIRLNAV
Kind of experiment: Binding assay SERT (h), [3H]imipramine, CHO cells. Conditions: read-out: SERT [%]. The essentials: as §1

Experiment [3] addresses serotoninergic 5-HT6 receptor (Homo sapiens, UniProt P50406). As to the kind of experiment: Binding assay 5-HT6 (h), [3H]LSD, CHO cells. More on the design: expressed in transfected cells; host or cells: CHO cells. The settings on record: read-out: 5-HT6. The essentials:
as §1

For experiment [4], the target named is serotoninergic 5-HT7 receptor (Homo sapiens, UniProt P34969). As to the kind of experiment: Binding assay 5-HT7 (h), [3H]LSD, CHO cells. More on the design: expressed in transfected cells; host or cells: CHO cells. The settings on record: read-out: 5-HT7. The essentials: as §1
Chain of serotoninergic 5-HT7 receptor (P34969 whole entry): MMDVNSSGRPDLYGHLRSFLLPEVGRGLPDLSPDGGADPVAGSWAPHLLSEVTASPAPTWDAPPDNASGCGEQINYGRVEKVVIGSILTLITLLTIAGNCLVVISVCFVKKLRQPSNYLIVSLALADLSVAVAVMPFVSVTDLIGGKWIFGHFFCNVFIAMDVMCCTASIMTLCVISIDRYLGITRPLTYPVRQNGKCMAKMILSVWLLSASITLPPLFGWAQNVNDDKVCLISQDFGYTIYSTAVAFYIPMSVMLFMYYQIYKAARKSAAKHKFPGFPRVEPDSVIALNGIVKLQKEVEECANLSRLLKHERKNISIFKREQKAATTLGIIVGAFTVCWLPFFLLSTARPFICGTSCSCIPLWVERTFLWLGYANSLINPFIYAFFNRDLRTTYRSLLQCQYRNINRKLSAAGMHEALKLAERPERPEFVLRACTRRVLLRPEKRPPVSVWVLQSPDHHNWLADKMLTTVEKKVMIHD
Experiment [5] has as its target serotoninergic 5-HT2A receptor (Homo sapiens, UniProt P28223). As to the kind of experiment: Binding assay 5-HT2A (h), [3H]ketanserin, HEK-293 cells. More on the design: expressed in transfected cells; host or cells: HEK-293 cells. The settings on record: read-out: 5-HT2A. The essentials:
as §1

For the next experiment, the target named is dopaminergic D2 receptor (Homo sapiens, UniProt P14416). As to the kind of experiment: Binding assay D2S (h), [3H]methyl-spiperone, HEK-293 cells. More on the design: expressed in transfected cells; host or cells: HEK-293 cells. The settings on record: read-out: D2 [%]. The essentials:
as §1

The subject of a further experiment is adrenergic α1 receptor. As to the kind of experiment: Binding assay α1 (non-selective), [3H]prazosin, rat cerebral cortex. Conditions: percent inhibition of control specific binding; compounds tested at 1×10^−6 M. The essentials:
as §1

Chain of dopaminergic D2 receptor (P14416 1-414 isoform P14416-2): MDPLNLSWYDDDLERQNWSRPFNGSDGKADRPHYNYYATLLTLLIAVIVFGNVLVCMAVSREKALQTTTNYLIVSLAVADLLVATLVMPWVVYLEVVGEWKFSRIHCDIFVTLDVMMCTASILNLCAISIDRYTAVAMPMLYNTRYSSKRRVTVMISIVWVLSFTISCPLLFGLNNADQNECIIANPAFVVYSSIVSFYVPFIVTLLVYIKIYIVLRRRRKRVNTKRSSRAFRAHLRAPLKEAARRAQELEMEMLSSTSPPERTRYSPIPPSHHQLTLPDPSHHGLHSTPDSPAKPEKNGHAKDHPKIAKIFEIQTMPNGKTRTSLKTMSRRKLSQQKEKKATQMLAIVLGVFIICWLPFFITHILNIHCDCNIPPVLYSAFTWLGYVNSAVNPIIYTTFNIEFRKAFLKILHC
Chain of dopaminergic D3 receptor (P35462 whole entry): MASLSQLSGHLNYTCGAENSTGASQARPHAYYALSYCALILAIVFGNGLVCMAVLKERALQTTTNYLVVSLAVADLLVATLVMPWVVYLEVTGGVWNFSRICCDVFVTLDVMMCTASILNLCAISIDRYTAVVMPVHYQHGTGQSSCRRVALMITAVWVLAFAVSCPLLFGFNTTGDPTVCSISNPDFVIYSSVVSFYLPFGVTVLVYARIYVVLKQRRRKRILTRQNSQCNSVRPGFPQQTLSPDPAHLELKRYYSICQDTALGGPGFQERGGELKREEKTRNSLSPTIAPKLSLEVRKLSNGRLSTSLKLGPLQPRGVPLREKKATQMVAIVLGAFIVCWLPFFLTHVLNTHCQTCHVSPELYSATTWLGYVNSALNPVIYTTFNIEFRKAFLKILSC
Chain of serotoninergic 5-HT6 receptor (P50406 whole entry): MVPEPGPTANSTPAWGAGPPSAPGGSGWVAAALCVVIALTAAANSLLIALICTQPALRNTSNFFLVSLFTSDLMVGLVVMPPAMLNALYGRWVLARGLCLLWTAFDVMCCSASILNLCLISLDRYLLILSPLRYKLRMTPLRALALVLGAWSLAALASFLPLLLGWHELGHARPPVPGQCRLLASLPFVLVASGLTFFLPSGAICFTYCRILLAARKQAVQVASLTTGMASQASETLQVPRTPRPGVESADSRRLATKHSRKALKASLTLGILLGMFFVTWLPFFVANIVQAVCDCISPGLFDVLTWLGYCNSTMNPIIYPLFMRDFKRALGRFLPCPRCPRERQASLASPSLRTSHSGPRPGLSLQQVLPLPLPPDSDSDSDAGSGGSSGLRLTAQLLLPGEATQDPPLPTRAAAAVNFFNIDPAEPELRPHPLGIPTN
Chain of serotoninergic 5-HT2A receptor (P28223 whole entry): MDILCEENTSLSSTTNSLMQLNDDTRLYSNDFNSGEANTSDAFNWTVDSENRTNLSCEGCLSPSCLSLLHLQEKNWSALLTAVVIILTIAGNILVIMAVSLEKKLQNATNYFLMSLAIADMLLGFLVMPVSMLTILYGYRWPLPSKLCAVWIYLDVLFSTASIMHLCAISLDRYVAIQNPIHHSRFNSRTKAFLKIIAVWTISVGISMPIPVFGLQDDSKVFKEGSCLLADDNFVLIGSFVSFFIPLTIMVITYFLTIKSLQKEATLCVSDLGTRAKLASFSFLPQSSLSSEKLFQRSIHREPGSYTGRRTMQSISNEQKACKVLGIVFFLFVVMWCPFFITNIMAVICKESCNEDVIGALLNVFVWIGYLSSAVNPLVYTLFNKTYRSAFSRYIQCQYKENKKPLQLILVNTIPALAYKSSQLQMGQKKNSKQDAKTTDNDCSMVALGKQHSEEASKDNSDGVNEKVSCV

Regarding `COc1cccc(S(=O)(=O)NCCCN2CCC(c3noc4cc(F)ccc34)CC2)c1` [Compound 332, N-[3-[4-(6-Fluoro-1,2-benzoxazol-3-yl)piperidin-1-yl]propyl]-3-methoxybenzenesulphonamide], the inhibition at 1 µM was determined as 71% in experiment [1]; 96% at dopaminergic D3 receptor; 18% in experiment [2]; 95% in experiment [3]; 64% in experiment [4]; 97% in experiment [5]. Also, at dopaminergic D2 receptor, the inhibition at 1 µM came out at 83%. Further, in the experiment with adrenergic α1 receptor, the “α1 [%]” value is given as 107%.
Turning to `CC(C)(C)c1ccc(S(=O)(=O)NCCCN2CCC(c3noc4cc(F)ccc34)CC2)cc1` [Compound 333, 4-tert-Butyl-N-[3-[4-(6-fluoro-1,2-benzoxazol-3-yl)piperidin-1-yl]propyl]benzenesulphonamide], the inhibition at 1 µM in experiment [1] is 42%; at dopaminergic D3 receptor, 89%; in experiment [2] it was 5%; in experiment [3] it was 93%; in experiment [4], 92%; in experiment [5], 99%. Besides, on dopaminergic D2 receptor, the inhibition at 1 µM came out at 92%. Also, in the experiment on adrenergic α1 receptor, the “α1 [%]” value is on record as 106%.
With `O=S(=O)(NCCCN1CCC(c2noc3cc(F)ccc23)CC1)c1ccc(C(F)(F)F)cc1` [Compound 334, N-[3-[4-(6-Fluoro-1,2-benzoxazol-3-yl)piperidin-1-yl]propyl]-4-(trifluoromethyl)-benzenesulphonamide], the inhibition at 1 µM in experiment [1] is 86%; on dopaminergic D3 receptor it was 96%; in experiment [2] it was 30%; in experiment [3], 98%; in experiment [4], 85%; in experiment [5] it was 90%. Besides, the inhibition at 1 µM at dopaminergic D2 receptor was found to be 75%. In the experiment on adrenergic α1 receptor, the “α1 [%]” value was found to be 105%.
`O=S(=O)(NCCCN1CCC(c2noc3cc(F)ccc23)CC1)c1cccc(C(F)(F)F)c1` [Compound 335, N-[3-[4-(6-Fluoro-1,2-benzoxazol-3-yl)piperidin-1-yl]propyl]-3-(trifluoromethyl)-benzenesulphonamide]: the inhibition at 1 µM was 54% in experiment [1]; 93% on dopaminergic D3 receptor; -25% in experiment [2]; 93% in experiment [3]; 88% in experiment [4]; 97% in experiment [5]. The inhibition at 1 µM on dopaminergic D2 receptor came to 105%. The “α1 [%]” value in the experiment with adrenergic α1 receptor worked out at 101%.
In the case of `O=S(=O)(NCCCN1CCC(c2noc3cc(F)ccc23)CC1)c1ccc(OC(F)(F)F)cc1` [Compound 336, N-[3-[4-(6-Fluoro-1,2-benzoxazol-3-yl)piperidin-1-yl]propyl]-4-(trifluoromethoxy)-benzenesulphonamide], the inhibition at 1 µM was determined as 61% in experiment [1]; 96% at dopaminergic D3 receptor; 41% in experiment [2]; 92% in experiment [3]; 92% in experiment [4]; 100% in experiment [5]. The inhibition at 1 µM on dopaminergic D2 receptor was 97%. The “α1 [%]” value with adrenergic α1 receptor was determined as 107%.
`N#Cc1ccc(S(=O)(=O)NCCCN2CCC(c3noc4cc(F)ccc34)CC2)cc1` [Compound 337, 4-Cyano-N-[3-[4-(6-fluoro-1,2-benzoxazol-3-yl)piperidin-1-yl]propyl]benzenesulphonamide]: the inhibition at 1 µM came to 41% in experiment [1]; 79% at dopaminergic D3 receptor; 35% in experiment [2]; 76% in experiment [3]; 87% in experiment [4]; 102% in experiment [5]. The inhibition at 1 µM at dopaminergic D2 receptor stood at 59%. Also, in the experiment with adrenergic α1 receptor, the “α1 [%]” value is recorded as 93%.
`O=S(=O)(NCCCN1CCC(c2noc3cc(F)ccc23)CC1)c1cccs1` [Compound 339, N-[3-[4-(6-Fluoro-1,2-benzoxazol-3-yl)piperidin-1-yl]propyl]thiophene-2-sulphonamide]: the inhibition at 1 µM in experiment [1] turned out to be 76%; at dopaminergic D3 receptor it was 100%; in experiment [2] it was 3%; in experiment [3], 89%; in experiment [4], 89%; in experiment [5], 82%. For the same molecule, the inhibition at 1 µM on dopaminergic D2 receptor stood at 96%. Moreover, in the experiment with adrenergic α1 receptor, the “α1 [%]” value came to 108%.
On to `O=S(=O)(NCCCN1CCC(c2noc3cc(F)ccc23)CC1)c1ccsc1` [Compound 340, N-[3-[4-(6-Fluoro-1,2-benzoxazol-3-yl)piperidin-1-yl]propyl]thiophene-3-sulphonamide], for which the inhibition at 1 µM in experiment [1] stood at 45%; on dopaminergic D3 receptor, 101%; in experiment [2], 9%; in experiment [3] it was 72%; in experiment [4] it was 90%; in experiment [5], 104%. The inhibition at 1 µM on dopaminergic D2 receptor was 101%. Also, the “α1 [%]” value in the experiment with adrenergic α1 receptor is 110%.
Regarding `Cc1cc(S(=O)(=O)NCCCN2CCC(c3noc4cc(F)ccc34)CC2)c(C)s1` [Compound 342, N-[3-[4-(6-Fluoro-1,2-benzoxazol-3-yl)piperidin-1-yl]propyl]-2,5-dimethyl-thiophene-3-sulphonamide], the inhibition at 1 µM in experiment [1] was 74%; at dopaminergic D3 receptor, 99%; in experiment [2], 26%; in experiment [3] it was 100%; in experiment [4] it was 96%; in experiment [5], 106%. In addition, the inhibition at 1 µM on dopaminergic D2 receptor was determined as 106%. The “α1 [%]” value with adrenergic α1 receptor is reported as 103%.
As to `Cn1ccc2c(S(=O)(=O)NCCCN3CCC(c4noc5cc(F)ccc45)CC3)cccc21` [Compound 343, N-[3-[4-(6-Fluoro-1,2-benzoxazol-3-yl)piperidin-1-yl]propyl]-1-methyl-indole-4-sulphonamide], the inhibition at 1 µM in experiment [1] is 32%; at dopaminergic D3 receptor, 96%; in experiment [2], 4%; in experiment [3] it was 77%; in experiment [4], 92%; in experiment [5], 105%. Moreover, the inhibition at 1 µM at dopaminergic D2 receptor worked out at 101%. Further, in the experiment on adrenergic α1 receptor, the “α1 [%]” value amounted to 86%.
Regarding `Cn1ccc2cc(S(=O)(=O)NCCCN3CCC(c4noc5cc(F)ccc45)CC3)ccc21` [Compound 344, N-[3-[4-(6-Fluoro-1,2-benzoxazol-3-yl)piperidin-1-yl]propyl]-1-methyl-indole-5-sulphonamide], the inhibition at 1 µM in experiment [1] stood at 42%; at dopaminergic D3 receptor, 101%; in experiment [2] it was 31%; in experiment [3], 91%; in experiment [4], 95%; in experiment [5], 105%. Also, the inhibition at 1 µM on dopaminergic D2 receptor worked out at 107%. For the same molecule, in the experiment with adrenergic α1 receptor, the “α1 [%]” value came out at 106%.
Consider `O=S(=O)(NCCCN1CCC(c2noc3cc(F)ccc23)CC1)c1cc2ccccc2s1` [Compound 345, N-[3-[4-(6-Fluoro-1,2-benzoxazol-3-yl)piperidin-1-yl]propyl]benzothiophene-2-sulphonamide], for which the inhibition at 1 µM in experiment [1] is 45%; on dopaminergic D3 receptor, 100%; in experiment [2] it was -10%; in experiment [3], 91%; in experiment [4], 91%; in experiment [5], 93%. Moreover, the inhibition at 1 µM at dopaminergic D2 receptor is 109%. The “α1 [%]” value with adrenergic α1 receptor was determined as 102%.
On to `O=S(=O)(NCCCN1CCC(c2noc3cc(F)ccc23)CC1)c1csc2ccccc12` [Compound 346, N-[3-[4-(6-Fluoro-1,2-benzoxazol-3-yl)piperidin-1-yl]propyl]benzothiophene-3-sulphonamide], for which the inhibition at 1 µM in experiment [1] was 51%; at dopaminergic D3 receptor, 93%; in experiment [2], 17%; in experiment [3], 95%; in experiment [4], 87%; in experiment [5] it was 97%. Further, the inhibition at 1 µM on dopaminergic D2 receptor worked out at 100%. In addition, in the experiment on adrenergic α1 receptor, the “α1 [%]” value is recorded as 103%.
On to `O=S(=O)(NCCCN1CCC(c2noc3cc(F)ccc23)CC1)c1cc2ccccc2o1` [Compound 349, N-[3-[4-(6-Fluoro-1,2-benzoxazol-3-yl)piperidin-1-yl]propyl]benzofuran-2-sulphonamide], for which the inhibition at 1 µM in experiment [1] is 49%; on dopaminergic D3 receptor, 100%; in experiment [2] it was 0%; in experiment [3], 87%; in experiment [4], 91%; in experiment [5], 108%. Moreover, the inhibition at 1 µM at dopaminergic D2 receptor turned out to be 93%. Besides, the “α1 [%]” value in the experiment on adrenergic α1 receptor was 98%.
